In patent US20030087830A1, “Low molecular weight components of cartilage, complexes of metals with amino acids, DI-peptides and analogs thereof; processes for preparation and therapeutic uses thereof” (priority 2001, published 2003):

Assays:
C6 glioblastoma cells = assay: C6 glioblastoma cell proliferation; format: cell-based, rat; settings: 48 hours; free amino acids and Glu-Trp 2.5 mM, CuCl2 1.25 mM
Procedure: Endothelial and tumor cell proliferation assays were performed to determine the ability of test samples to inhibit endothelial cell proliferation (antiangiogenic activity), normal cell proliferation,and tumor cell proliferation.
Endothelial cells (Human umbilical vein endothelial cells (HUVEC), bovine aortic endothelial cells (BAEC)), skeletal muscle cells, human dermal fibroblasts (all from Clonetics, Walkersville, Md.) were respectively maintained in EBM-2, MDEM, SKGM and FGFM-2 complete media according to manufacturer's instructions. Tumor rat glioblastoma cell line (C6) was maintained in DMEM (Sigma, Oaksville, Ontario) supplemented with 10% fetal calf serum (FCS) and antibiotics in 5% CO2. Briefly, cells seeded in 96-well sterile tissue culture dishes were treated with increasing concentrations of different test samples for a period of 48 hours at 37° C. Cell number was then evaluated by a calorimetric assay using the cell proliferation reagent tetrazolium salt and the fluorimetric assay using DNA dye (Hoescht) according to the procedure established by the manufacturer (Boehringer Mannhein). The conversion of these tetrazolium salts into formazan occurs only in metabolically active cells. The percentage of cell inhibition was determined by comparison to untreated cells.

[1] = tested on: bFGF-stimulated blood vessel formation in Matrigel; assay: Matrigel in vivo angiogenesis assay; parameters: species or system C57B1/6 mice; settings: intra-peritoneal daily 10 days
Procedure: The Matrigel™ in vivo assay was performed to determine the ability of test samples to inhibit blood vessel formation (antiangiogenic activity) and to establish their bioavailability in vivo.
Briefly, liquid Matrigel™ (Becton Dickinson, Bedford, Mass.) was maintained at 4° C. and mixed thoroughly for at least 3 hours with 1,500 ng/ml basic fibroblast growth factor (bFGF) (R&D Systems, Minneapolis, Minn.) used as the primary angiogenic stimulus. The mixture (0.5 ml) was injected subcutaneously into the ventral midline of C57B1/6 mice, and treatment with different test samples or saline solution was initiated the same day. Additional animals were also injected with Matrigel™ containing no bFGF to serve as baseline controls. The animals were treated daily for a 10 day period (intra-peritonealy, 0.2 ml of each dose). At day 11, animals were injected with FITC-dextran 20 min prior to euthanizing treated mice. Matrigel™ gels were removed along with underlying peritoneum and prepared for FITC-dextran detection by fluorimetry. The concentration of FITC-dextran in the gels was calculated from a known concentration of FITC-dextran using a standard curve. The FITC-dextran content of the gels from compound-treated animals and controls was expressed as a percent of the positive bFGF-treated controls after the baseline control of FITC-dextran levels were subtracted from all groups.

[2] = tested on: Lewis lung carcinoma clone M27; assay: Lewis Lung Carcinoma metastatic mouse model (LLC); format: in vivo, C57BL/10 female mice; settings: 2.5 mg/kg, intraperitoneal daily for two weeks; lung surface metastases
Source text: The Lewis Lung Carcinoma mouse model (LLC) was used to determine the ability of different test samples to inhibit the formation of metastases within the lung. The Lewis lung carcinoma clone M27, with a high metastatic potential to the lung, was established by Dr P. Brodt (Brodt P, Characterization of two highly metastatic variants of Lewis lung carcinoma with different organ specificities. Cancer Res., 46: 2442, 1986). This model is well established and is known for its predictive correlation between in vitro and in vivo activity. Briefly, LLC cells were transplanted subcutaneously in the axillary region of the right flank of C57BL/10 female mice (Charles River Inc.) When the primary tumor reached a size of 0.5-1.0 cm^3 (day 10 post-inoculation), the tumor was carefully separated from the surrounding healthy tissues. Treatment with different test samples started the day following tumor removal (day 11 post-inoculation). Saline or different test samples were administered daily for two weeks by intraperitoneal injection (0.2 ml of each dose). As previous experiments had shown that a period of approximately two weeks after removal of the primary tumor was sufficient to obtain an average of 30 to 50 nodules on the lung surface, animals were sacrificed in a CO2 chamber two weeks later. Following autopsy, both lungs were removed, weighed and fixed in 10% Bouin's fixative. Lung surface metastases were counted using a stereomicroscope (4×).

[3] = Affinity of the amino acid with copper; format: physicochemical

L-Asp Cu L-Asp [Compound 6]
C6 glioblastoma (EC50 (mM)) (C6 glioblastoma cells): Non-active
Matrigel in vivo % of inhibition ([1]; 0.14 mg/Kg equivalent copper): 27.7% of inhibition
Matrigel in vivo % of inhibition ([1]; 1.14 mg/Kg equivalent copper): 22.6% of inhbition
Matrigel in vivo % inhibition ([1]; 1.4 mg/Kg equivalent copper): 22.6%
Antimetastatic activity (% inhibition) (at 2.5 mg/kg of Cu-complex) [2]: 26.9%
Affinity of the AA with Cooper [3]: 16.0
